Measured values from US11034661B2, “Substituted N′-hydroxycarbamimidoyl-1,2,5-oxadiazole compounds as indoleamine 2,3-dioxygenase IDO inhibitors” (Merck Sharp & Dohme Corp., priority 2017, dated 2021).
pIC50: −log10 of the molar value.

Key:
[1] = molecular target: IDO1 in Hela cells stimulated with IFNγ (Homo sapiens (Human), UniProt P14902); assay: IDO1 Cellular Assay in Hela Cells Stimulated with IFNγ; format: cell-based; conditions: IFNγ 100 ng/mL, about 48 hours, fluorescence readout, read-out: IDO1 HELA Cell Assay, IC50
Description: IDO1 Cellular Assay in Hela Cells Stimulated with IFNγ
Hela cells were cultured in complete Hela culture medium (90% EMEM, 10% heat-inactivated fetal bovine serum) and expanded to about 1×10^9 cells. The cells were then collected and frozen down at 10×10^6 cells/vial in 1 mL frozen medium (90% complete Hela culture medium, 10% DMSO)
Compounds to be tested were serially diluted in ten 3-fold steps in DMSO starting from 10 mM DMSO stocks in Echo low volume plate(s). Compound dilutions or DMSO alone were then dispensed from the dilution plate(s) into Greiner black 384-well assay plate(s) (catalog #781086, 50 nL/well) using an Echo 550 acoustic liquid handler (Labcyte).
Frozen Hela cells were thawed and transferred into Hela assay medium (99% complete Hela culture medium, 1% Pen/Strep) with 20 mL medium/vial of cells. The cells were spun down at 250 g in a table top centrifuge for 5 min and suspended in same volume of Hela assay medium. The cells were then counted and adjusted to a density of 2×10^5 cells/ml in Hela assay medium. Sterile L-tryptophan were added to the cells with final concentration of 300 uM L-tryptophan. A small aliquot (2 mL/plate) of Hela cells were set aside and were not treated with IFNγ, to serve as the Max-E control. The rest of Hela cells were added with sterile IFNγ (Cat #285-IF, R & D systems) with a final concentration of 100 ng/mL.
Hela cells with and without IFNγ were dispensed to the respective wells of 384-well assay plates containing the compounds. The plates were incubated for about 48 hours at a 37° C., 5% CO2 incubator. Afterwards, 12 μL of 0.5 M methyl isonipecotate in dimethyl sulfoxide were added into each well and the plates were sealed and incubated at 37° C. without CO2 overnight. The plates were centrifuged for 1 min at 200×g. The resulting fluorescence was measured in a Spectramax plate reader (Molecular Devices) with a 400 nm excitation filter and a 510 nm emission filter.
The fluorescence intensity of each well was corrected for the background observed in wells with non-IFNγ-treated cells and was expressed as a fraction of the intensity observed in wells of IFNγ-treated cells and DMSO only. Potencies were calculated by linear least squares fit to the four parameter logistic IC50 equation.

[2] = molecular target: HIS-tagged IDO1 protein (Homo sapiens (Human), UniProt P14902); assay: IDO1 Enzyme Assay; format: biochemical; conditions: recombinant IDO1 40 nM, tryptophan substrate, fluorescence readout
Description: Biological Assays IDO1 Enzyme Assay
Compounds to be tested were serially diluted in ten 3-fold steps in DMSO starting from 10 mM DMSO stocks. Compound dilutions or DMSO alone were then dispensed from the dilution plate into a Greiner black 384-well assay plate (catalog #781086) using an Echo 555 acoustic liquid handler (Labcyte).
HIS-tagged IDO1 protein was recombinantly expressed in Escherichia coli using ZYP5052 autoinduction media supplemented with 500 μM delta aminolevulinic acid for 48 hours at 16 degrees Celsius. IDO1 protein was purified using Ni^2+-affinity resin and size exclusion chromatography. Purified protein was then diluted in assay buffer (50 mM Tris pH 7.0, 1% glycerol, 20 μM methylene blue, 0.05% Tween-20, 20 mM sodium ascorbate, 100 units/mL catalase to obtain a final IDO1 concentration of 40 nM. IDO1 solution […] or buffer alone […] was dispensed to wells of the assay plate using a BioRAPTR liquid dispenser (Beckman Coulter). Assay plates containing compound and IDO1 enzyme were incubated at room temperature for 30 minutes. Afterwards, 10 μL of 400 μM tryptophan in assay buffer were added to each well of the assay plate using a BioRAPTR liquid dispenser. Plates were incubated at room temperature for 60 minutes and reactions were quenched by addition of 10 μL of 0.5 M methyl isonipecotate in dimethyl sulfoxide. Plates were sealed and incubated at 37 degrees Celsius for 4 hours or 50 degrees Celsius for 2 hours. The plates are allowed to cool and then centrifuged for 1 minute at 1000×g. The resulting fluorescence was measured in an Envision plate reader (Perkin Elmer) with a 400/25 nm excitation filter and an 510/20 nm emission filter.
Potencies were calculated by linear least squares fit to the four parameter logistic IC50 equation.

[3] = molecular target: IDO1 in human whole blood stimulated with LPS and IFNγ (Homo sapiens (Human), UniProt P14902); assay: IDO1 Human Whole Blood Assay; format: cell-based; conditions: LPS and IFNγ 100 ng/mL, 18 h, kynurenine by LC/MS/MS
Description: IDO1 Human Whole Blood Assay
Compounds to be tested were serially diluted in ten 3-fold steps in DMSO starting from 10 mM. 3 μL of compound dilutions or DMSO alone were then dispensed from the dilution plate into a polypropylene 96-well assay plate containing 97 μL of RPMI using an Echo 555 acoustic liquid handler (Labcyte). LPS and IFNγ was prepared in RPMI to a 10× of final conc. (1000 ng/mL), final concentration is 100 ng/mL.
Human whole blood was drawn in sodium heparin coated tubes from healthy internal donors. Two hundred forty μL of blood was transferred to each of the wells of a v-bottom 96 well plate. Thirty μL of compound was transferred from intermediate dilution plate, and incubated for 15 min. Thirty μL from stimulants was then transferred to blood and mixed thoroughly. Plate was covered with breathable membrane and incubated at 37° C. for overnight (18 h).
On day 2 isotope labeled standard of kynurenine and tryptophan was made in water at 10× concentration and 30 μL was added to the blood at 3 μM final concentration. The assay plates were centrifuged at 300×G for 10 min with no brake to separate plasma from red blood cells. Sixty μL of plasma samples was removed without disturbing red blood cells. Plasma was diluted with RPMI in 1:1 ratio and proteins were precipitated out with two volume of Acetonitrile. The plates was centrifuged at 4000×G for 60 min. Twenty μL of supernatant was carefully transferred to a 384 well plate contain 40 μL of 0.1% formic acid in water and analyzed by LC/MS/MS.
LC/MS/MS analyses were performed using Thermo Fisher's LX4-TSQ Quantum Ultra system. This system consists of four Agilent binary high-performance liquid chromatography (HPLC) pumps and a TSQ Quantum Ultra triple quadruple MS/MS instrument. For each sample, 5 μL were injected onto an Atlantis T3 column (2.1 mm×150 mm, 3 μm particle size) from Waters. The mobile phase gradient pumped at 0.8 mL/min was used to elute the analytes from the column at 25° C. The elution started at 0% B increasing linearly to 25% B at 6.5 min, holding at 25% for 1 min, re-equilibrating to 10 min. Mobile phase A consisted of 0.1% formic acid in water. Mobile phase B consisted of 0.1% of formic acid in acetonitrile. Data was acquired in positive mode using a HESI interface. The operational parameters for the TSQ Quantum Ultra instrument were a spray voltage of 4000 V, capillary temperature of 380° C., vaporizer temperature 400° C., shealth gas 60 arbitrary units, Aux gas 20 arbitrary units, tube lens 85 and collision gas 1.2 mTorr. SRM chromatograms of kynurenine (Q 1: 209.2>Q3:94.0) and internal standard (Q1: 215.3>Q3:98.2) were collected for 90 sec. The peak area was integrated by Xcalibur Quan software. The ratios between the kynurenine generated in the reaction and 2D6-Kynurenine spiked-in internal standard were used to generate percentage inhibition and IC50 values. Compounds were titrated and IC50's were calculated by 4 parameter sigmoidal curve fitting formula.

Chain of HIS-tagged IDO1 protein (P14902 whole entry): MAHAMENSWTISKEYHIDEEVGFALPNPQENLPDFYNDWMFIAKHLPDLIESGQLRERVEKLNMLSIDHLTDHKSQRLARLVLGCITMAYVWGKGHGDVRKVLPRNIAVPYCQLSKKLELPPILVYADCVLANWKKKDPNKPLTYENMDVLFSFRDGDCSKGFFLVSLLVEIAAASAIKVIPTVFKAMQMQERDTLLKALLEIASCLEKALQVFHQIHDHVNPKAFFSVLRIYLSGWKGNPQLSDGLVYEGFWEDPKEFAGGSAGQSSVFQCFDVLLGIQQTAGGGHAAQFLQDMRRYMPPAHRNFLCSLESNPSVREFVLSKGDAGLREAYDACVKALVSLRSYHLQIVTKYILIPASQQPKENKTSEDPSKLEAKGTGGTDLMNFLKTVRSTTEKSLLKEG
Chain of IDO1 in human whole blood stimulated with LPS and IFNγ (P14902 whole entry): as above
Chain of IDO1 in Hela cells stimulated with IFNγ (P14902 whole entry): as above

pIC50 [1] | pIC50 [2] | IDO1 human whole blood assay, IC50 [3] [nM] | Compound
7.40 | 7.31 | 387.6 | NC(=O)N[C@H]1C[C@@H](Oc2nonc2/C(=N/O)N[C@H]2Cc3ccc(F)cc32)C1 [Example 42, 4-{[cis-3-(carbamoylamino)cyclobutyl]oxy}-N-[(7S)-4-fluorobicyclo[4.2.0]octa-1,3,5-trien-7-yl]-N′-hydroxy-1,2,5-oxadiazole-3-carboximidamide]
5.87 | 5.83 | 386.1 | O=C(CO)N[C@H]1C[C@H](Oc2nonc2/C(=N/O)N[C@H]2Cc3ccc(F)cc32)C1 [Example 56, N-{trans-3-[(4-{N-[(7S)-4-fluorobicyclo[4.2.0]octa-1,3,5-trien-7-yl]-N′-hydroxycarbamimidoyl}-1,2,5-oxadiazol-3-yl)oxy]cyclobutyl}-2-hydroxyacetamide]
7.28 | 7.40 | 503.3 | CCC(=O)NCCOc1nonc1/C(=N/O)N[C@H]1Cc2ccc(F)cc21 [Example 33, N-{2-[(4-{N-[(7S)-4-fluorobicyclo[4.2.0]octa-1,3,5-trien-7-yl]-N′-hydroxycarbamimidoyl}-1,2,5-oxadiazol-3-yl)oxy]ethyl}propanamide]
7.23 | 7.32 | 351.3 | CS(=O)(=O)NCCOc1nonc1/C(=N/O)N[C@H]1Cc2ccc(F)cc21 [Example 6, N-[(7S)-4-fluorobicyclo[4.2.0]octa-1,3,5-trien-7-yl]-N′-hydroxy-4-{2-[(methylsulfonyl)amino]ethoxy}-1,2,5-oxadiazole-3-carboximidamide]
6.49 | 6.86 | 1414 | O=C(COc1nonc1/C(=N/O)N[C@H]1Cc2ccc(F)cc21)NCCO [Example 4, (S)-2-((4-(N-(4-fluorobicyclo[4.2.0]octa-1(6),2,4-trien-7-yl)-N′-hydroxycarbamimidoyl)-1,2,5-oxadiazol-3-yl)oxy)-N-(2-hydroxyethyl)acetamide]
6.16 | 6.32 |  | NC(=O)N(CCO)CCOc1nonc1/C(=N/O)NC1Cc2ccc(F)cc21 (stereo not drawn) [Example 15, 4-{2-[carbamoyl(2-hydroxyethyl)amino]ethoxy}-N-(4-fluorobicyclo[4.2.0]octa-1,3,5-trien-7-yl)-N′-hydroxy-1,2,5-oxadiazole-3-carboximidamide]
6.48 | 6.67 |  | CC(=O)NC[C@@H](CO)Oc1nonc1/C(=N/O)N[C@H]1Cc2ccc(F)cc21 [Example 55, N-{(2S)-2-[(4-{N-[(7S)-4-fluorobicyclo[4.2.0]octa-1,3,5-trien-7-yl]-N′-hydroxycarbamimidoyl}-1,2,5-oxadiazol-3-yl)oxy]-3-hydroxypropyl}acetamide]
6.21 | 6.38 |  | C[C@H](O)CNC(=O)COc1nonc1/C(=N/O)N[C@H]1Cc2ccc(F)cc21 [Example 9, 2-[(4-{N-[(7S)-4-fluorobicyclo[4.2.0]octa-1,3,5-trien-7-yl]-N′-hydroxycarbamimidoyl}-1,2,5-oxadiazol-3-yl)oxy]-N-[(2S)-2-hydroxypropyl]acetamide]
5.69 | 5.67 |  | CC(C)(COc1nonc1/C(=N/O)N[C@H]1Cc2ccc(F)cc21)NC(=O)CO [Example 35, N-{1-[(4-{N-[(7S)-4-fluorobicyclo[4.2.0]octa-1,3,5-trien-7-yl]-N′-hydroxycarbamimidoyl}-1,2,5-oxadiazol-3-yl)oxy]-2-methylpropan-2-yl}-2-hydroxyacetamide]
5.78 | 5.61 |  | C[C@@H](CNC(=O)CO)Oc1nonc1/C(=N/O)N[C@H]1Cc2ccc(F)cc21 [Example 46, N-{(2S)-2-[(4-{N-[(7S)-4-fluorobicyclo[4.2.0]octa-1,3,5-trien-7-yl]-N′-hydroxycarbamimidoyl}-1,2,5-oxadiazol-3-yl)oxy]propyl}-2-hydroxyacetamide]
6.06 | 6.54 |  | NS(=O)(=O)CCOc1nonc1/C(=N/O)N[C@H]1Cc2ccc(F)cc21 [Example 34, N-[(7S)-4-fluorobicyclo[4.2.0]octa-1,3,5-trien-7-yl]-N′-hydroxy-4-(2-sulfamoylethoxy)-1,2,5-oxadiazole-3-carboximidamide]
5.89 | 6.00 |  | O=C(COc1nonc1/C(=N/O)N[C@H]1Cc2ccc(F)cc21)N1CC[C@H](O)C1 [Example 45, N-[(7S)-4-fluorobicyclo[4.2.0]octa-1,3,5-trien-7-yl]-N′-hydroxy-4-{2-[(3S)-3-hydroxypyrrolidin-1-yl]-2-oxoethoxy}-1,2,5-oxadiazole-3-carboximidamide]
5.99 | 5.62 |  | CC(=O)NC[C@H](C)Oc1nonc1/C(=N/O)N[C@H]1Cc2ccc(F)cc21 [Example 40, N-{(2S)-2-[(4-{N-[(7S)-4-fluorobicyclo[4.2.0]octa-1,3,5-trien-7-yl]-N′-hydroxycarbamimidoyl}-1,2,5-oxadiazol-3-yl)oxy]propyl}acetamide]
6.04 | 6.15 |  | O=C(COc1nonc1/C(=N/O)NC1Cc2ccc(F)cc21)NCC(O)CO (stereo not drawn) [Example 12, N-(2,3-dihydroxypropyl)-2-({4-[N-(4-fluorobicyclo[4.2.0]octa-1,3,5-trien-7-yl)-N′-hydroxycarbamimidoyl]-1,2,5-oxadiazol-3-yl}oxy)acetamide]
